Source: US10736974B2, “Scaffolds and multifunctional intermediates for imaging PSMA and cancer therapy” (THE JOHNS HOPKINS UNIVERSITY, priority 2014, dated 2020)
“Also recorded” adds a separate entry of the source.

Legend:
[1] = system: PSMA+ PC-3 PIP and PSMA- PC-3 flu tumors; assay: PET-CT imaging of NOD/SCID mice bearing PSMA+ PC-3 PIP and PSMA- PC-3 flu tumors; assay type: in vivo
Method: FIG. 8A, FIG. 8B, FIG. 8C, and FIG. 8D show positron emission tomography-computed tomography (PET-CT) images in male NOD-SCID mice injected with the radiolabeled [^18F]XY-20 compound at (FIG. 8A) 5-15 minutes, (FIG. 8B) 15-25 minutes, (FIG. 8C) 25-35 minutes and (FIG. 8D) 50-60 minutes after injection; the mice on the right in each panel were pretreated with ZJ43 and the mice on the left in each panel were not pretreated with ZJ43. The green arrows point to the PSMA-negative PC3-flu tumor and the red arrows point to the PSMA-expressing (PC3-PIP) tumor (target); 200 microCi of radiotracer was injected;
Dynamic and whole-body PET and CT images were acquired on an eXplore VISTA small-animal PET (GE Healthcare) and an X-SPECT small SPECT/CT system (Gamma Medica Ideas), respectively. For imaging studies, anesthesia was induced with 3% and maintained under 1.5% isoflurane (v/v) in oxygen. PET or PET-CT imaging studies were performed on NOD/SCID mice bearing PSMA+PC-3 PIP and PSMA-PC-3 flu tumors. Following intravenous injection of [^18F]12 ([^18F]XY-20) PET images were acquired at 10 min, 30 min, 1 h, 2 h and 4 h p.i. as a pseudodynamic scan, i.e., a sequence of successive whole-body images were acquired in two bed positions. The dwell time at each bed position was 10 min for a total scan time of 20 minutes. An energy window of 250-700 keV was used. […]

[2] = system: PSMA+ PC-3 PIP and PSMA- PC-3 flu tumors; assay: Ex vivo biodistribution in mice bearing PSMA+ PC-3 PIP and PSMA- PC-3 flu xenografts; settings: for Biodistribution, PC-3 Pip tumor: PSMA+ PC-3 PIP tumor; for Biodistribution, PC-3 flu tumor: PSMA- PC-3 flu tumor; for Biodistribution, Lrg int.: large intestine; for Biodistribution, Sm. int.: small intestine
PC-3 PIP (PSMA+) cells = assay: In vitro stability studies (TLC of radiometabolites) in PC-3 PIP and PC-3 flu cells; settings: 30 minutes incubation, PC-3 PIP vs PC-3 flu cells

O=C(O)CC[C@H](NC(=O)O[C@@H](CCCCNC(=O)c1ccc([18F])cc1)C(=O)O)C(=O)O [[^18F]12]
tumor uptake on co-injection with an excess of competing inhibitor ZJ-43 [1]: complete blockade of tumor uptake
tumor and kidney uptake and clearance (pharmacokinetics in words) ([2]; PC-3 PIP tumor mice): modest PSMA+PC-3 PIP tumor uptake but rapidly cleared from both PC-3 PIP tumor and normal tissues including kidneys
Biodistribution, PC-3 Pip tumor ([2]; 30 min, N = 7): 6.33±1.55 percent injected dose/gram
Biodistribution, PC-3 Pip tumor ([2]; 60 min, N = 4): 3.52 ± 1.48 percent injected dose/gram
Biodistribution, PC-3 Pip tumor ([2]; 90 min, N = 4): 0.94 ± 0.24 percent injected dose/gram
Biodistribution, PC-3 Pip tumor ([2]; 180 min, N = 4): 0.22 ± 0.07 percent injected dose/gram
Biodistribution, PC-3 flu tumor ([2]; 30 min, N = 7): 1.89 ± 0.78 percent injected dose/gram
Biodistribution, PC-3 flu tumor ([2]; 60 min, N = 4): 0.72 ± 0.12 percent injected dose/gram
Biodistribution, PC-3 flu tumor ([2]; 90 min, N = 4): 0.37 ± 0.08 percent injected dose/gram
Biodistribution, PC-3 flu tumor ([2]; 180 min, N = 4): 0.12 0.03 percent injected dose/gram
clearance of radioactivity from organs ([2]; after 30 min): radioactivity rapidly cleared from all organs including PC-3 PIP tumor
Biodistribution, bladder ([2]; 30 min, N = 7): 22.4 ± 22.5 percent injected dose/gram
Biodistribution, bladder ([2]; 60 min, N = 4): 5.50 ± 3.45 percent injected dose/gram
Biodistribution, bladder ([2]; 90 min, N = 4): 2.11 ± 1.21 percent injected dose/gram
Biodistribution, bladder ([2]; 180 min, N = 4): 2.74 ± 0.48 percent injected dose/gram
Biodistribution, blood ([2]; 30 min, N = 7): 2.51 ± 1.75 percent injected dose/gram
Biodistribution, blood ([2]; 60 min, N = 4): 1.07 ± 0.26 percent injected dose/gram
Biodistribution, blood ([2]; 90 min, N = 4): 0.20 ± 0.14 percent injected dose/gram
Biodistribution, blood ([2]; 180 min, N = 4): 0.08 ± 0.06 percent injected dose/gram
Biodistribution, bone ([2]; 30 min, N = 7): 2.05 ± 2.39 percent injected dose/gram
Biodistribution, bone ([2]; 60 min, N = 4): 0.72 ± 0.31 percent injected dose/gram
Biodistribution, bone ([2]; 90 min, N = 4): 0.79 ± 0.16 percent injected dose/gram
Biodistribution, bone ([2]; 180 min, N = 4): 0.63 ± 0.14 percent injected dose/gram
Biodistribution, fat ([2]; 30 min, N = 7): 1.23 ± 1.88 percent injected dose/gram
Biodistribution, fat ([2]; 60 min, N = 4): 0.15 ± 0.05 percent injected dose/gram
Biodistribution, fat ([2]; 90 min, N = 4): 0.11 ± 0.06 percent injected dose/gram
Biodistribution, fat ([2]; 180 min, N = 4): 0.04 ± 0.02 percent injected dose/gram
Biodistribution, heart ([2]; 30 min, N = 7): 1.12 ± 0.74 percent injected dose/gram
Biodistribution, heart ([2]; 60 min, N = 4): 0.25 ± 0.08 percent injected dose/gram
Biodistribution, heart ([2]; 90 min, N = 4): 0.11 ± 0.02 percent injected dose/gram
Biodistribution, heart ([2]; 180 min, N = 4): 0.07 ± 0.04 percent injected dose/gram
Biodistribution, kidney ([2]; 30 min, N = 7): 14.2 ± 8.47 percent injected dose/gram
Biodistribution, kidney ([2]; 60 min, N = 4): 6.97 ± 7.02 percent injected dose/gram
Biodistribution, kidney ([2]; 90 min, N = 4): 1.51 ± 0.22 percent injected dose/gram
Biodistribution, kidney ([2]; 180 min, N = 4): 0.50 ± 0.18 percent injected dose/gram
Biodistribution, Lrg int. ([2]; 30 min, N = 7): 3.82 ± 5.87 percent injected dose/gram
Biodistribution, Lrg int. ([2]; 60 min, N = 4): 0.62 ± 0.27 percent injected dose/gram
Biodistribution, Lrg int. ([2]; 90 min, N = 4): 0.18 ± 0.03 percent injected dose/gram
Biodistribution, Lrg int. ([2]; 180 min, N = 4): 0.16 ± 0.05 percent injected dose/gram
Biodistribution, liver ([2]; 30 min, N = 7): 11.0 ± 1.77 percent injected dose/gram
Biodistribution, liver ([2]; 60 min, N = 4): 12.5 ± 3.01 percent injected dose/gram
Biodistribution, liver ([2]; 90 min, N = 4): 11.0 ± 0.87 percent injected dose/gram
Biodistribution, liver ([2]; 180 min, N = 4): 4.62 ± 3.80 percent injected dose/gram
Biodistribution, lung ([2]; 30 min, N = 7): 2.07 ± 1.51 percent injected dose/gram
Biodistribution, lung ([2]; 60 min, N = 4): 0.85 ± 0.55 percent injected dose/gram
Biodistribution, lung ([2]; 90 min, N = 4): 0.33 ± 0.05 percent injected dose/gram
Biodistribution, lung ([2]; 180 min, N = 4): 0.14 ± 0.04 percent injected dose/gram
Biodistribution, muscle ([2]; 30 min, N = 7): 0.86 ± 0.81 percent injected dose/gram
Biodistribution, muscle ([2]; 60 min, N = 4): 0.27 ± 0.12 percent injected dose/gram
Biodistribution, muscle ([2]; 90 min, N = 4): 0.06 ± 0.01 percent injected dose/gram
Biodistribution, muscle ([2]; 180 min, N = 4): 0.03 ± 0.01 percent injected dose/gram
Biodistribution, Sm. int. ([2]; 30 min, N = 7): 1.89 ± 1.58 percent injected dose/gram
Biodistribution, Sm. int. ([2]; 60 min, N = 4): 0.54 ± 0.19 percent injected dose/gram
Biodistribution, Sm. int. ([2]; 90 min, N = 4): 0.27 ± 0.11 percent injected dose/gram
Biodistribution, Sm. int. ([2]; 180 min, N = 4): 0.08 ± 0.04 percent injected dose/gram
Biodistribution, spleen ([2]; 30 min, N = 7): 3.76 ± 6.48 percent injected dose/gram
Biodistribution, spleen ([2]; 60 min, N = 4): 0.45 ± 0.31 percent injected dose/gram
Biodistribution, spleen ([2]; 90 min, N = 4): 0.27 ± 0.04 percent injected dose/gram
Biodistribution, spleen ([2]; 180 min, N = 4): 0.13 ± 0.08 percent injected dose/gram

O=C(O)CC[C@H](NC(=O)O[C@@H](CCCCNC(=O)c1ccc([125I])cc1)C(=O)O)C(=O)O [[^125I]31, (S)-2-(((((S)-1-carboxy-5-(4-[^125I]iodobenzamido)pentyl)oxy)carbonyl)amino) pentanedioic acid]
radiometabolites / metabolism in cells (PC-3 PIP (PSMA+) cells): Polar radiometabolite(s) in extracellular and intracellular fluid were only seen; also recorded: observed only in PSMA+PC-3 PIP cells
